Measured values: PubChem BioAssay AID1918955 (Molecular Pharmacology Branch, DTP, NCI, 2023)
Values joined by “and” are separate entries in the source; they are usually repeats but may differ in a detail not shown here. Equal values may be shown once.

Tested on: NCI/ADR-RES complex spheroid viability
Experiment: Anticancer human tumor NCI/ADR-RES cell line growth inhibition;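 for viability, T/C: 100% = DMSO vehicle treated spheroids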
Conditions: for viability, T/C: stronger effect = lower value
Procedure, shortened: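 Complex spheroids of tumor cells with HUVEC and human MSCs, exposed to iadademstat combined with other agents. Each agent tested in half-log steps from near clinical Cmax (else 10 microM top), DMSO ≤0.25%.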

[1] = curve of first compound, second compound 0.1 µM
[2] = curve of first compound, second compound 0.316 µM
[3] = curve of first compound, second compound 1 µM
[4] = curve of first compound, second compound 3.16 µM
[5] = curve of first compound, second compound 10 µM
[6] = second compound 0.1 µM, first compound 0.00316 µM
[7] = second compound 0.1 µM, first compound 0.01 µM
[8] = second compound 0.1 µM, first compound 0.0316 µM
[9] = second compound 0.1 µM, first compound 0.1 µM
[10] = second compound 0.316 µM, first compound 0.00316 µM
[11] = second compound 0.316 µM, first compound 0.01 µM
[12] = second compound 0.316 µM, first compound 0.0316 µM
[13] = second compound 0.316 µM, first compound 0.1 µM
[14] = second compound 1 µM, first compound 0.00316 µM
[15] = second compound 1 µM, first compound 0.01 µM
[16] = second compound 1 µM, first compound 0.0316 µM
[17] = second compound 1 µM, first compound 0.1 µM
[18] = second compound 3.16 µM, first compound 0.00316 µM
[19] = second compound 3.16 µM, first compound 0.01 µM
[20] = second compound 3.16 µM, first compound 0.0316 µM
[21] = second compound 3.16 µM, first compound 0.1 µM
[22] = second compound 10 µM, first compound 0.00316 µM
[23] = second compound 10 µM, first compound 0.01 µM
[24] = second compound 10 µM, first compound 0.0316 µM
[25] = second compound 10 µM, first compound 0.1 µM
[26] = second compound 0.1 µM, first compound 0.316 µM
[27] = second compound 0.1 µM, first compound 1 µM
[28] = second compound 0.316 µM, first compound 0.316 µM
[29] = second compound 0.316 µM, first compound 1 µM
[30] = second compound 1 µM, first compound 0.316 µM
[31] = second compound 1 µM, first compound 1 µM
[32] = second compound 3.16 µM, first compound 0.316 µM
[33] = second compound 3.16 µM, first compound 1 µM
[34] = second compound 10 µM, first compound 0.316 µM
[35] = second compound 10 µM, first compound 1 µM

## CC[C@@]1(O)C(=O)OCc2c1cc1n(c2=O)Cc2cc3c(CN(C)C)c(O)ccc3nc2-1 + NC1CCC(NC2CC2c2ccccc2)CC1
[1]
  IC50: 0.00831 µM
[2]
  IC50: 0.00818 µM
[3]
  IC50: 0.00909 µM
[4]
  IC50: 0.00745 µM
[5]
  IC50: 0.00556 µM
Second compound 0.1 µM, first compound 0.000316 µM
  viability, T/C: 104%
Second compound 0.1 µM, first compound 0.001 µM
  viability, T/C: 97.8%
[6]
  viability, T/C: 86.5%
[7]
  viability, T/C: 43.4%
[8]
  viability, T/C: 9.03%
[9]
  viability, T/C: 3.21%
Second compound 0.316 µM, first compound 0.000316 µM
  viability, T/C: 118%
Second compound 0.316 µM, first compound 0.001 µM
  viability, T/C: 116%
[10]
  viability, T/C: 86.7%
[11]
  viability, T/C: 42.9%
[12]
  viability, T/C: 10.8%
[13]
  viability, T/C: 2.57%
Second compound 1 µM, first compound 0.000316 µM
  viability, T/C: 103%
Second compound 1 µM, first compound 0.001 µM
  viability, T/C: 103%
[14]
  viability, T/C: 92.9%
[15]
  viability, T/C: 46.2%
[16]
  viability, T/C: 8.05%
[17]
  viability, T/C: 2.63%
Second compound 3.16 µM, first compound 0.000316 µM
  viability, T/C: 108%
Second compound 3.16 µM, first compound 0.001 µM
  viability, T/C: 98.8%
[18]
  viability, T/C: 91.3%
[19]
  viability, T/C: 35.6%
[20]
  viability, T/C: 10.1%
[21]
  viability, T/C: 4.55%
Second compound 10 µM, first compound 0.000316 µM
  viability, T/C: 98.5%
Second compound 10 µM, first compound 0.001 µM
  viability, T/C: 95.3%
[22]
  viability, T/C: 66.8%
[23]
  viability, T/C: 32%
[24]
  viability, T/C: 7.06%
[25]
  viability, T/C: 2.23%

## CCN(c1cc(-c2ccc(CN3CCOCC3)cc2)cc(C(=O)NCc2c(C)cc(C)[nH]c2=O)c1C)C1CCOCC1 + NC1CCC(NC2CC2c2ccccc2)CC1
[1]
  IC50: > 3 µM
[2]
  IC50: > 3 µM
[3]
  IC50: > 3 µM
[4]
  IC50: > 3 µM
[5]
  IC50: > 3 µM
Second compound 0.1 µM, first compound 0.00949 µM
  viability, T/C: 92.4%
Second compound 0.1 µM, first compound 0.03 µM
  viability, T/C: 92.5%
Second compound 0.1 µM, first compound 0.0949 µM
  viability, T/C: 98.1%
Second compound 0.1 µM, first compound 0.3 µM
  viability, T/C: 98.1%
Second compound 0.1 µM, first compound 0.949 µM
  viability, T/C: 92.8%
Second compound 0.1 µM, first compound 3 µM
  viability, T/C: 89.3%
Second compound 0.316 µM, first compound 0.00949 µM
  viability, T/C: 94.6%
Second compound 0.316 µM, first compound 0.03 µM
  viability, T/C: 97.9%
Second compound 0.316 µM, first compound 0.0949 µM
  viability, T/C: 96.9%
Second compound 0.316 µM, first compound 0.3 µM
  viability, T/C: 95%
Second compound 0.316 µM, first compound 0.949 µM
  viability, T/C: 91.4%
Second compound 0.316 µM, first compound 3 µM
  viability, T/C: 81.5%
Second compound 1 µM, first compound 0.00949 µM
  viability, T/C: 104%
Second compound 1 µM, first compound 0.03 µM
  viability, T/C: 99.5%
Second compound 1 µM, first compound 0.0949 µM
  viability, T/C: 93.8%
Second compound 1 µM, first compound 0.3 µM
  viability, T/C: 99%
Second compound 1 µM, first compound 0.949 µM
  viability, T/C: 95.7%
Second compound 1 µM, first compound 3 µM
  viability, T/C: 89.2%
Second compound 3.16 µM, first compound 0.00949 µM
  viability, T/C: 89.4%
Second compound 3.16 µM, first compound 0.03 µM
  viability, T/C: 98%
Second compound 3.16 µM, first compound 0.0949 µM
  viability, T/C: 94%
Second compound 3.16 µM, first compound 0.3 µM
  viability, T/C: 96%
Second compound 3.16 µM, first compound 0.949 µM
  viability, T/C: 87.6%
Second compound 3.16 µM, first compound 3 µM
  viability, T/C: 89%
Second compound 10 µM, first compound 0.00949 µM
  viability, T/C: 91.9%
Second compound 10 µM, first compound 0.03 µM
  viability, T/C: 89.8%
Second compound 10 µM, first compound 0.0949 µM
  viability, T/C: 88.2%
Second compound 10 µM, first compound 0.3 µM
  viability, T/C: 86.1%
Second compound 10 µM, first compound 0.949 µM
  viability, T/C: 90.1%
Second compound 10 µM, first compound 3 µM
  viability, T/C: 80.9%

## CC1COCCN1c1cc(-c2ccnn2C)c2ccnc(-c3ccn[nH]3)c2n1 (configuration not stated) + NC1CCC(NC2CC2c2ccccc2)CC1
[1]
  IC50: 0.0155 µM
[2]
  IC50: 0.0163 µM
[3]
  IC50: 0.0165 µM
[4]
  IC50: 0.0138 µM
[5]
  IC50: 0.00744 µM
[6]
  viability, T/C: 99.8%
[7]
  viability, T/C: 70.3%
[8]
  viability, T/C: 17.4%
[9]
  viability, T/C: 4.62%
[26]
  viability, T/C: 5.9%
[27]
  viability, T/C: 8.55%
[10]
  viability, T/C: 101%
[11]
  viability, T/C: 74.4%
[12]
  viability, T/C: 16.8%
[13]
  viability, T/C: 2.98%
[28]
  viability, T/C: 2.91%
[29]
  viability, T/C: 2.82%
[14]
  viability, T/C: 102%
[15]
  viability, T/C: 74.6%
[16]
  viability, T/C: 18.8%
[17]
  viability, T/C: 3.17%
[30]
  viability, T/C: 7.14%
[31]
  viability, T/C: 10.6%
[18]
  viability, T/C: 92.1%
[19]
  viability, T/C: 65.6%
[20]
  viability, T/C: 10.3%
[21]
  viability, T/C: 2.4%
[32]
  viability, T/C: 6%
[33]
  viability, T/C: 2.76%
[22]
  viability, T/C: 83.9%
[23]
  viability, T/C: 38.2%
[24]
  viability, T/C: 11.9%
[25]
  viability, T/C: 2.97%
[34]
  viability, T/C: 1.89%
[35]
  viability, T/C: 2.07%

## CC1(C)CCC(CN2CCN(c3ccc(C(=O)NS(=O)(=O)c4ccc(NCC5CCOCC5)c([N+](=O)[O-])c4)c(Oc4cnc5[nH]ccc5c4)c3)CC2)=C(c2ccc(Cl)cc2)C1 + NC1CCC(NC2CC2c2ccccc2)CC1
[1]
  IC50: > 10 µM
[2]
  IC50: > 10 µM
[3]
  IC50: > 10 µM
[4]
  IC50: > 10 µM
[5]
  IC50: > 10 µM
[8]
  viability, T/C: 98.7%
[9]
  viability, T/C: 101%
[26]
  viability, T/C: 93.5%
[27]
  viability, T/C: 103%
Second compound 0.1 µM, first compound 3.16 µM
  viability, T/C: 96.8%
Second compound 0.1 µM, first compound 10 µM
  viability, T/C: 91.3%
[12]
  viability, T/C: 91.8%
[13]
  viability, T/C: 103%
[28]
  viability, T/C: 99.2%
[29]
  viability, T/C: 104%
Second compound 0.316 µM, first compound 3.16 µM
  viability, T/C: 103%
Second compound 0.316 µM, first compound 10 µM
  viability, T/C: 100%
[16]
  viability, T/C: 97.2%
[17]
  viability, T/C: 108%
[30]
  viability, T/C: 102%
[31]
  viability, T/C: 114%
Second compound 1 µM, first compound 3.16 µM
  viability, T/C: 102%
Second compound 1 µM, first compound 10 µM
  viability, T/C: 100%
[20]
  viability, T/C: 99.6%
[21]
  viability, T/C: 104%
[32]
  viability, T/C: 101%
[33]
  viability, T/C: 104%
Second compound 3.16 µM, first compound 3.16 µM
  viability, T/C: 96.3%
Second compound 3.16 µM, first compound 10 µM
  viability, T/C: 89.9%
[24]
  viability, T/C: 84.5%
[25]
  viability, T/C: 90%
[34]
  viability, T/C: 105%
[35]
  viability, T/C: 94.5%
Second compound 10 µM, first compound 3.16 µM
  viability, T/C: 94.3%
Second compound 10 µM, first compound 10 µM
  viability, T/C: 85.4%

## Nc1ncn(C2CC(O)C(CO)O2)c(=O)n1 (configuration not stated)
Compound 0.00316 µM
  viability, T/C: 95.5% and 91.8%
Compound 0.01 µM
  viability, T/C: 89.1% and 76.3%
Compound 0.0316 µM
  viability, T/C: 71% and 57.2%
Compound 0.1 µM
  viability, T/C: 40.1% and 33.6%
Compound 0.316 µM
  viability, T/C: 27.4% and 18.6%
Compound 1 µM
  viability, T/C: 19.8% and 12.7%
Curve of compound
  IC50: 0.0708 µM and 0.0434 µM

## COc1cc(Nc2ncc3c(n2)-c2ccc(Cl)cc2C(c2c(F)cccc2OC)=NC3)ccc1C(=O)O + NC1CC1c1ccc(-c2cccc(O)c2)cc1
[1]
  IC50: 0.0169 µM
[2]
  IC50: 0.0183 µM
[3]
  IC50: 0.0176 µM
[4]
  IC50: 0.0195 µM
[5]
  IC50: 0.0171 µM
[6]
  viability, T/C: 86%
[7]
  viability, T/C: 64.9%
[8]
  viability, T/C: 32.5%
[9]
  viability, T/C: 16%
[26]
  viability, T/C: 15.4%
[27]
  viability, T/C: 14.4%
[10]
  viability, T/C: 93.5%
[11]
  viability, T/C: 65.8%
[12]
  viability, T/C: 36.7%
[13]
  viability, T/C: 18%
[28]
  viability, T/C: 15.7%
[29]
  viability, T/C: 17.3%
[14]
  viability, T/C: 89.7%
[15]
  viability, T/C: 62.2%
[16]
  viability, T/C: 38.1%
[17]
  viability, T/C: 19.7%
[30]
  viability, T/C: 14.4%
[31]
  viability, T/C: 12%
[18]
  viability, T/C: 88.6%
[19]
  viability, T/C: 63.6%
[20]
  viability, T/C: 41.8%
[21]
  viability, T/C: 19.4%
[32]
  viability, T/C: 15.9%
[33]
  viability, T/C: 11.8%
[22]
  viability, T/C: 79.2%
[23]
  viability, T/C: 57.8%
[24]
  viability, T/C: 41.2%
[25]
  viability, T/C: 23.6%
[34]
  viability, T/C: 13%
[35]
  viability, T/C: 11.9%
